# Assays:
# [1] = system: full thickness dermal incisions; assay: Rat dorsal full thickness dermal incision wound healing model; format: in vivo
# Text: A total of nine animals underwent surgery: three controls and six treatment animals. On each control animal four full thickness dermal incisions were made on the dorsum. The two anterior incisions were closed with uncoated 3-0 Vicryl and N-butyl-2-cyanoacrylate glue; the posterior incisions were closed with Vicryl alone. In the experimental animals four full thickness wounds were made on the dorsum; the two anterior incisions were closed uncoated Vicryl and a mixture of HF—Br and N-butyl-2-cyanoacrylate (0.5 cc of HF—Br was added to 0.5 cc of N-butyl cyanoacrylate glue) was applied topically to the closed wound. The two posterior wounds were closed with HF—Br coated 3-0 Vicryl. Two treatment animals and one control animal were then euthanized at 2, 6, and 12 weeks and soft tissue specimens were taken for analysis.
# Soft tissue samples were harvested, embedded in paraffin and sectioned (5 μm). Sections were stained with Hematoxylin and Eosin (H&E) and Masson's Trichrome. Inflammation scores were recorded according to the method of Storch (Surgical Infections. 2002; 3: 89-98). The area of scar tissue deposition was approximated and calculated with light microscopy and a Zeiss™ digital image capture software system.
# To evaluate levels of newly formed collagen, tissue samples were digested in 1M NaCl in 0.05M Tris. Salt soluble collagen was then bound with a Sircol™ dye detection system and content was measured with UV spectrophotometry at […]. Percent tissue masses of salt soluble collagen were higher in all week 2 samples.
# Tensile strength of dermal wound tissue specimens is assessed by measuring the breaking point with a tensometer. Tissue specimens are harvested and analyzed immediately after animals are sacrificed. The specimens are attached to the tensometer and pressure is applied until the wound breaks. This breaking pressure is recorded as tensile strength.
# Skin samples were harvested so that the plane of the scar would be perpendicular to the direction of force applied. Samples were frozen, re-thawed, and secured by clamps in an tensometer (Instron™ Norwood, Mass.). Force was then applied until samples broke. Ultimate tensile load, percent elongation, and stiffness were then calculated for three control and three HF—Br treated samples at 2 and 12 weeks. Averages were reported. Average stiffness, ultimate tensile load, and percent elongation for all tissue samples increased from 2 to 12 weeks (FIG. 9).
# paranasal sinus wounds = assay: Rat model of paranasal sinus surgery, HF-coated cellulose pack; format: in vivo; conditions: topical administration
# Description: Topical application of a halofuginone/cellulose derivative packing was tested for the prevention of scar tissue formation in the paranasal sinuses of a rat. The paired, anatomically identical paranasal sinuses of the rat allow one side to serve as a control and the other to serve as experimental. The control sinus was packed with an uncoated cellulose derivative packing material (Merocel). The other (experimental) sinus cavity was packed with a halofuginone bromide coated cellulose derivative compound packing material. A second set of animals underwent paranasal sinus surgery and no packing material of any kind was placed. Both packing preparations provide adequate homeostasis and require removal, as in the human clinical scenario. The surgical wound was closed using absorbable subcuticular sutures. Sinus surgery was performed in the rat and packs placed for 5 days. Sinus specimens were harvested and analyzed.
# In vivo elution studies were performed on packs removed 5 days post-operatively, placed in 10 mL PBS for 8 hrs, and 300 uL aliquot placed in spectrophotometer (blanked with a control pack removed post-operatively).
# [2] = In vitro elution of halofuginone from coated Vicryl sutures into PBS; format: physicochemical; conditions: UV spectroscopy at 243 nm
# Description: To determine halofuginone elution, an in vitro elution study was performed. The release of halofuginone from coated Vicryl sutures into phosphate buffered saline (PBS) was used to estimate kinetics of drug release in vivo. A 2.5 cm segment of HF—Br coated Vicryl was placed in 1.5 mL of PBS and incubated at 37° C. At 5, 15, 30, and 45 minutes and 1, 2, 4, 8, 24, 48, 72, and 96 hours the segment was transferred into a new 1.5 mL aliquot of PBS, and the amount of halofuginone from the previous aliquot was measured with UV spectrophotometry at 243 nm. Data from UV spectrophotometry indicated a rapid release of HF—Br into PBS in vitro (FIG. 3). It was approximated that 90% of the total drug mass was released in 30 minutes and that the drug was nearly eliminated in 2 hours.
# [3] = system: alpha 1 collagen gene expression; assay: Real time qPCR of alpha 1 collagen gene expression in wound border skin; format: in vivo, rat; conditions: wounds treated topically, suture only animals
# Text: To determine alpha 1 collagen gene expression (in suture only animals), 2 mm punch biopsies of skin were taken at the border of wounds adjacent to suture material. Samples were flash frozen, pulverized, and RNA was extracted with Trizol reagent. Real time qPCR was employed to measure gene expression using rat 1-alpha-2 collagen ampliset. Relative quantities of alpha 1 collagen gene expression were normalized with expression levels of 18S and GAPDH RNA. These values were then divided by the relative quantity of alpha 1 collagen gene expression in normal skin.
compound,measurement,setting,value
"O=C(CC1NCCCC1O)Cn1cnc2cc(Br)c(Cl)cc2c1=O (centres unmarked) [HF—Br, 7-bromo-6-chloro-3-[3-(3-hydroxy-2-piperidinyl)-2-oxopropyl]-4(3H)]",inflammation scores,"[1]; H&E, weeks 2, 6 and 12, vs controls",consistently lower
same,cross sectional areas of collagen deposition (scar),"[1]; Masson's trichrome, vs controls",consistently smaller
same,salt soluble collagen levels,"[1]; Sircol assay, treated vs control, each time point",No significant difference
same,difference in collagen staining between treated and control,[1]; Week 2,2.7 fold
same,wound area approximation,[1]; Week 2,"322,107 μm^2"
same,gross appearance of wounds,"[1]; later time points, vs control",No significant difference in appearance
same,"stiffness, ultimate tensile load and percent elongation (tensile strength)","[1]; rat, in vivo",No significant difference
same,gross appearance of wounds (erythema and induration),"[1]; two weeks, vs control wounds",More erythema and induration were visible in control wounds
same,post-operative scar formation,paranasal sinus wounds,reduced post-operative scar formation
same,release of HF—Br into PBS in vitro,[2],rapid drug release
same,1-alpha-2 collagen gene expression,[3],inhibited

# From US8883183B2, “Medical devices incorporating collagen inhibitors” (Wake Forest University Health Sciences, priority 2008, dated 2014)
